Experimental data as given in ChEMBL document CHEMBL5154747, “Discovery of new carbonic anhydrase IX inhibitors as anticancer agents by toning the hydrophobic and hydrophilic rims of the active site to encounter the dual-tail approach” (Eur J Med Chem, 2022).

How the values were obtained:
Type in all cases: functional
Conditions in all cases: read-out: GI
[1] = system: HCT-15; assay: Anticancer activity against human HCT-15 cells assessed as cell growth inhibition at 10 uM incubated for 48 hrs by SRB assay relative to control
[2] = system: U-251; assay: Anticancer activity against human U-251 cells assessed as cell growth inhibition at 10 uM incubated for 48 hrs by SRB assay relative to control
[3] = system: NCI/ADR-RES; assay: Anticancer activity against human NCI/ADR-RES cells assessed as cell growth inhibition at 10 uM incubated for 48 hrs by SRB assay relative to control
[4] = system: NCI-H226; assay: Anticancer activity against human NCI-H226 cells assessed as cell growth inhibition at 10 uM incubated for 48 hrs by SRB assay relative to control
[5] = system: NCI-H522; assay: Anticancer activity against human NCI-H522 cells assessed as cell growth inhibition at 10 uM incubated for 48 hrs by SRB assay relative to control
[6] = system: SW-620; assay: Anticancer activity against human SW-620 cells assessed as cell growth inhibition at 10 uM incubated for 48 hrs by SRB assay relative to control
[7] = system: SR; assay: Anticancer activity against human SR cells assessed as cell growth inhibition at 10 uM incubated for 48 hrs by SRB assay relative to control
[8] = system: HT-29; assay: Anticancer activity against human HT-29 cells assessed as cell growth inhibition at 10 uM incubated for 48 hrs by SRB assay relative to control
[9] = system: OVCAR-5; assay: Anticancer activity against human OVCAR-5 cells assessed as cell growth inhibition at 10 uM incubated for 48 hrs by SRB assay relative to control
[10] = system: SF-268; assay: Anticancer activity against human SF-268 cells assessed as cell growth inhibition at 10 uM incubated for 48 hrs by SRB assay relative to control
[11] = system: RPMI-8226; assay: Anticancer activity against human RPMI-8226 cells assessed as cell growth inhibition at 10 uM incubated for 48 hrs by SRB assay relative to control
[12] = system: PC-3; assay: Anticancer activity against human PC-3 cells assessed as cell growth inhibition at 10 uM incubated for 48 hrs by SRB assay relative to control
[13] = system: CCRF-CEM; assay: Anticancer activity against human CCRF-CEM cells assessed as cell growth inhibition at 10 uM incubated for 48 hrs by SRB assay relative to control
[14] = system: T47D; assay: Anticancer activity against human T47D cells assessed as cell growth inhibition at 10 uM incubated for 48 hrs by SRB assay relative to control
[15] = system: ACHN; assay: Anticancer activity against human ACHN cells assessed as cell growth inhibition at 10 uM incubated for 48 hrs by SRB assay relative to control
[16] = system: SF-539; assay: Anticancer activity against human SF-539 cells assessed as cell growth inhibition at 10 uM incubated for 48 hrs by SRB assay relative to control
[17] = system: MOLT-4; assay: Anticancer activity against human MOLT-4 cells assessed as cell growth inhibition at 10 uM incubated for 48 hrs by SRB assay relative to control
[18] = system: OVCAR-8; assay: Anticancer activity against human OVCAR-8 cells assessed as cell growth inhibition at 10 uM incubated for 48 hrs by SRB assay relative to control
[19] = system: A498; assay: Anticancer activity against human A498 cells assessed as cell growth inhibition at 10 uM incubated for 48 hrs by SRB assay relative to control
[20] = system: COLO 205; assay: Anticancer activity against human COLO 205 cells assessed as cell growth inhibition at 10 uM incubated for 48 hrs by SRB assay relative to control
[21] = system: HCC 2998; assay: Anticancer activity against human HCC 2998 cells assessed as cell growth inhibition at 10 uM incubated for 48 hrs by SRB assay relative to control
[22] = system: HOP-62; assay: Anticancer activity against human HOP-62 cells assessed as cell growth inhibition at 10 uM incubated for 48 hrs by SRB assay relative to control
[23] = system: MDA-MB-435; assay: Anticancer activity against human MDA-MB-435 cells assessed as cell growth inhibition at 10 uM incubated for 48 hrs by SRB assay relative to control
[24] = system: SK-MEL-2; assay: Anticancer activity against human SK-MEL-2 cells assessed as cell growth inhibition at 10 uM incubated for 48 hrs by SRB assay relative to control
[25] = system: NCI-H322M; assay: Anticancer activity against human NCI-H322M cells assessed as cell growth inhibition at 10 uM incubated for 48 hrs by SRB assay relative to control
[26] = system: SNB-75; assay: Anticancer activity against human SNB-75 cells assessed as cell growth inhibition at 10 uM incubated for 48 hrs by SRB assay relative to control
[27] = system: OVCAR-3; assay: Anticancer activity against human OVCAR-3 cells assessed as cell growth inhibition at 10 uM incubated for 48 hrs by SRB assay relative to control
[28] = system: SK-MEL-28; assay: Anticancer activity against human SK-MEL-28 cells assessed as cell growth inhibition at 10 uM incubated for 48 hrs by SRB assay relative to control
[29] = system: KM12; assay: Anticancer activity against human KM12 cells assessed as cell growth inhibition at 10 uM incubated for 48 hrs by SRB assay relative to control
[30] = system: EKVX; assay: Anticancer activity against human EKVX cells assessed as cell growth inhibition at 10 uM incubated for 48 hrs by SRB assay relative to control
[31] = system: RXF 393; assay: Anticancer activity against human RXF 393 cells assessed as cell growth inhibition at 10 uM incubated for 48 hrs by SRB assay relative to control
[32] = system: MDA-MB-468; assay: Anticancer activity against human MDA-MB-468 cells assessed as cell growth inhibition at 10 uM incubated for 48 hrs by SRB assay relative to control
[33] = system: BT-549; assay: Anticancer activity against human BT-549 cells assessed as cell growth inhibition at 10 uM incubated for 48 hrs by SRB assay relative to control
[34] = system: SK-OV-3; assay: Anticancer activity against human SK-OV-3 cells assessed as cell growth inhibition at 10 uM incubated for 48 hrs by SRB assay relative to control
[35] = system: UACC-62; assay: Anticancer activity against human UACC-62 cells assessed as cell growth inhibition at 10 uM incubated for 48 hrs by SRB assay relative to control
[36] = system: NCI-H23; assay: Anticancer activity against human NCI-H23 cells assessed as cell growth inhibition at 10 uM incubated for 48 hrs by SRB assay relative to control
[37] = system: K562; assay: Anticancer activity against human K562 cells assessed as cell growth inhibition at 10 uM incubated for 48 hrs by SRB assay relative to control
[38] = system: NCI-H460; assay: Anticancer activity against human NCI-H460 cells assessed as cell growth inhibition at 10 uM incubated for 48 hrs by SRB assay relative to control
[39] = system: LOX IMVI; assay: Anticancer activity against human LOX IMVI cells assessed as cell growth inhibition at 10 uM incubated for 48 hrs by SRB assay relative to control
[40] = system: DU-145; assay: Anticancer activity against human DU-145 cells assessed as cell growth inhibition at 10 uM incubated for 48 hrs by SRB assay relative to control

Structure (SMILES)	inhibition of growth at 10 µM [1] [%]	inhibition of growth at 10 µM [2] [%]	inhibition of growth at 10 µM [3] [%]	inhibition of growth at 10 µM [4] [%]	inhibition of growth at 10 µM [5] [%]	inhibition of growth at 10 µM [6] [%]	inhibition of growth at 10 µM [7] [%]	inhibition of growth at 10 µM [8] [%]	inhibition of growth at 10 µM [9] [%]	inhibition of growth at 10 µM [10] [%]	inhibition of growth at 10 µM [11] [%]	inhibition of growth at 10 µM [12] [%]	inhibition of growth at 10 µM [13] [%]	inhibition of growth at 10 µM [14] [%]	inhibition of growth at 10 µM [15] [%]	inhibition of growth at 10 µM [16] [%]	inhibition of growth at 10 µM [17] [%]	inhibition of growth at 10 µM [18] [%]	inhibition of growth at 10 µM [19] [%]	inhibition of growth at 10 µM [20] [%]	further results
COc1ccc(/C=N/Nc2nc(Nc3ccccc3)nc(Nc3ccc(S(N)(=O)=O)cc3)n2)cc1	31	33	< 10	26	17	27	51	44	14	< 10	52	24	54	36	24	51	55	32	38	23	inhibition of growth at 10 µM [21]: 12%; inhibition of growth at 10 µM [22]: 19%; inhibition of growth at 10 µM [23]: 23%; inhibition of growth at 10 µM [24]: 31%; inhibition of growth at 10 µM [25]: 15%; inhibition of growth at 10 µM [26]: 18%; inhibition of growth at 10 µM [27]: 38%; inhibition of growth at 10 µM [28]: 21%; inhibition of growth at 10 µM [29]: 25%; inhibition of growth at 10 µM [30]: 11%; inhibition of growth at 10 µM [31]: 77%; inhibition of growth at 10 µM [32]: 23%; inhibition of growth at 10 µM [33]: 14%; inhibition of growth at 10 µM [34]: < 10%; inhibition of growth at 10 µM [35]: 12%; inhibition of growth at 10 µM [36]: 29%; inhibition of growth at 10 µM [37]: 50%; inhibition of growth at 10 µM [38]: 44%; inhibition of growth at 10 µM [39]: 47%; inhibition of growth at 10 µM [40]: 34%
NS(=O)(=O)c1ccc(Nc2nc(N/N=C/c3cccs3)nc(Nc3ccccc3)n2)cc1	14	< 10	< 10	29	20	10	52	29	19	16	47	23	68	38	21	34	42	29	43	18	inhibition of growth at 10 µM [21]: 11%; inhibition of growth at 10 µM [22]: 15%; inhibition of growth at 10 µM [23]: 25%; inhibition of growth at 10 µM [24]: 24%; inhibition of growth at 10 µM [25]: 23%; inhibition of growth at 10 µM [26]: 16%; inhibition of growth at 10 µM [27]: 35%; inhibition of growth at 10 µM [28]: 20%; inhibition of growth at 10 µM [29]: 44%; inhibition of growth at 10 µM [30]: 24%; inhibition of growth at 10 µM [31]: 52%; inhibition of growth at 10 µM [32]: 50%; inhibition of growth at 10 µM [33]: 22%; inhibition of growth at 10 µM [34]: < 10%; inhibition of growth at 10 µM [35]: 24%; inhibition of growth at 10 µM [36]: 19%; inhibition of growth at 10 µM [37]: 39%; inhibition of growth at 10 µM [38]: 31%; inhibition of growth at 10 µM [39]: 32%; inhibition of growth at 10 µM [40]: 40%
NS(=O)(=O)c1ccc(Nc2nc(N/N=C/C=C/c3ccccc3)nc(Nc3ccccc3)n2)cc1	55	48	< 10	41	33	48	85	65	< 10	53	71	52	75	81	61	60	87	50	59	44	inhibition of growth at 10 µM [21]: 61%; inhibition of growth at 10 µM [22]: 43%; inhibition of growth at 10 µM [23]: 48%; inhibition of growth at 10 µM [24]: 55%; inhibition of growth at 10 µM [25]: 43%; inhibition of growth at 10 µM [26]: 57%; inhibition of growth at 10 µM [27]: 55%; inhibition of growth at 10 µM [28]: 39%; inhibition of growth at 10 µM [29]: 44%; inhibition of growth at 10 µM [30]: 28%; inhibition of growth at 10 µM [31]: 108%; inhibition of growth at 10 µM [32]: 84%; inhibition of growth at 10 µM [33]: 34%; inhibition of growth at 10 µM [34]: 21%; inhibition of growth at 10 µM [35]: 33%; inhibition of growth at 10 µM [36]: 59%; inhibition of growth at 10 µM [37]: 72%; inhibition of growth at 10 µM [38]: 93%; inhibition of growth at 10 µM [39]: 72%; inhibition of growth at 10 µM [40]: 57%
NS(=O)(=O)c1ccc(Nc2nc(N/N=C/c3ccccn3)nc(Nc3ccccc3)n2)cc1	82	155	51	149	132	117	87	93	90	122	63	107	94	118	82	142	96	96	167	142	inhibition of growth at 10 µM [21]: 174%; inhibition of growth at 10 µM [22]: 128%; inhibition of growth at 10 µM [23]: 184%; inhibition of growth at 10 µM [24]: 182%; inhibition of growth at 10 µM [25]: 109%; inhibition of growth at 10 µM [26]: 125%; inhibition of growth at 10 µM [27]: 115%; inhibition of growth at 10 µM [28]: 164%; inhibition of growth at 10 µM [29]: 95%; inhibition of growth at 10 µM [30]: 86%; inhibition of growth at 10 µM [31]: 174%; inhibition of growth at 10 µM [32]: 129%; inhibition of growth at 10 µM [33]: 120%; inhibition of growth at 10 µM [34]: 131%; inhibition of growth at 10 µM [35]: 149%; inhibition of growth at 10 µM [36]: 107%; inhibition of growth at 10 µM [37]: 87%; inhibition of growth at 10 µM [38]: 96%; inhibition of growth at 10 µM [39]: 143%; inhibition of growth at 10 µM [40]: 95%
